Results as given in patent US20040047845A1, “Methods and compositions for diagnosis and treatment of cancer based on the transcription factor ets2” (MUSC Foundation For Research Development, priority 1998, published 2004).

Columns and labels:
[1] = system: LNCaP human prostate cell line; assay: Soft agar growth assay, LNCaP; type: cell-based; details: de novo expression of ETS2 in weakly tumorigenic LNCaP
Procedure: (§1) Transfection of LNCaP was performed in 35-mm wells using 2 μg of DNA and Superfact Reagent (Qiagen, Calif.). Selection for stable LNCaP transfectants was in 450 μg/ml G418. DU145 and PC3 cells were transfected using LipofectAmine ([…]/35 mm well, Life Technologies Inc., Bethesda, Md.). Stable DU145 and PC3 transfectants were expanded in the presence of 300 μg/ml G418.
(§2) Soft agar growth assays were performed in six-well plates (35-mm wells). Cells (20,000) were plated in 0.4% agar (Sigma) in RPMI 1640 supplemented with 10% FBS. An underlayer of 0.8% agar was used to prevent attachment of cells. Triplicate assays initiated with 20,000 cells were fed weekly by agar overlay and scored after 3 weeks. The soft agar assays were performed twice, independently.

DU145 cells = assay: Soft agar growth assay (anchorage independent growth), DU145; type: cell-based, human; details: DN-ETS2 transfectants vs DU145 parental cell line, after three weeks
Procedure: as §1, §2

Molecule | ability to grow in soft agar [1] | anchorage-independent growth in soft agar (DU145 cells)
ETS2: wild type human ETS2 transcription factor, expressed de novo in LNCaP from ETS2 cDNA in sense orientation | increases its ability to grow in soft agar | –
DN-ETS2: dominant negative truncated human ETS2 protein, DNA binding domain (C-terminal amino acids 334-469), expressed from plasmid pDN-ETS2 (protein, UniProt P15036 334-469, looked up, fragment) YIQERSDPVEQGKPVIPAAVLAGFTGSGPIQLWQFLLELLSDKSCQSFISWTGDGWEFKLADPDEVARRWGKRKNKPKMNYEKLSRGLRYYYDKNIIHKTSGKRYVYRFVCDLQNLLGFTPEELHAILGVQPDTED | – | do not grow well in soft agar
